From patent publication US20230302009A1, “BACE1 INHIBITOR TREATMENT FOR S[…] STORM” (priority 2020, published 2023)

Columns and labels:
[1] = AD clinical trials (refs 27, 28, 34, 35); cited from earlier work
[2] = system: LPS-challenged mice; assay: Survival rescue after lethal dose of LPS; type: in vivo, C57BL/6 mice
[3] = system: LPS-challenged mice; conditions: mice without LPS treatment, MK-8931 50 mg/kg oral
[4] = system: LPS-challenged mice; assay: H&E histology, tissue injury score after LPS; conditions: LPS only or LPS plus MK-8931
[5] = MK-8931 plus LPS versus LPS only

| SMILES | tolerability in patients [1] | mice died ([2]; LPS 15 mg/kg i.p. plus MK-8931 50 mg/kg oral, 3 of 14 mice, between 20 to 96 hours after LPS) | mice survived ([2]; LPS 15 mg/kg i.p. plus MK-8931 50 mg/kg oral, 11 of the 14 mice) | increase of survival [2, 5] | reduction of mortality rate [2, 5] | plasma levels of cytokines/chemokines, MK-8931 alone [3] | tissue injury in spleen and liver [4] |
| --- | --- | --- | --- | --- | --- | --- | --- |
| CC#Cc1cncc(-c2ccc3c(c2)C2(N=C(C)C(N)=N2)C2(CCC(OC)CC2)C3)c1 (stereo not drawn) [AZD3293] | well-tolerated | – | – | – | – | – | – |
| C[C@@]1(c2nc(NC(=O)c3ncc(C(F)(F)F)cc3Cl)ccc2F)CO[C@@](C)(C(F)(F)F)C(N)=N1 [CNP50] | well-tolerated | – | – | – | – | – | – |
| CN1C(N)=N[C@](C)(c2cc(NC(=O)c3ccc(F)cn3)ccc2F)CS1(=O)=O [MK-8931] | safe oral drug and well-tolerated | 21.4% | 78.6% | 367% | 3.7 fold | did not affect | No significant tissue injury |
